Reference: ChEMBL document CHEMBL1146703, “Mannopeptimycin esters and carbonates, potent antibiotic agents against drug-resistant bacteria” (2004)
≈ marks a conversion by molar mass, not a printed value.

Columns and labels:
[1] = test system: Enterococcus faecalis; assay: Antibacterial activity against Enterococcus faecalis; format: functional
[2] = test system: Staphylococcus aureus; assay: Antibacterial activity against Staphylococcus aureus; format: functional
[3] = test system: Escherichia coli; assay: Antibacterial activity against Escherichia coli at </=64 ug/mL; No activity; format: functional, organism-based

MIC [1] [µg/mL] | MIC [2] [µg/mL] | MIC [3] | SMILES
> 64 | > 64 | No activity | C[C@@H](c1ccccc1)[C@@H]1NC(=O)CNC(=O)[C@H](COC(=O)C(c2ccccc2)c2ccccc2)NC(=O)[C@@H]([C@@H](O)[C@@H]2CNC(N)N2[C@H]2O[C@H](CO)[C@@H](O)[C@H](O)[C@@H]2O)NC(=O)[C@H]([C@@H](O)[C@@H]2CNC(N)N2)NC(=O)[C@@H](Cc2ccc(O[C@H]3O[C@H](CO)[C@@H](O[C@H]4O[C@H](CO)[C@@H](O)[C@H](O)[C@@H]4O)[C@H](O)[C@@H]3O)cc2)NC1=O (stereo not given in full)
– | – | No activity | CCCC(CCC)C(=O)OC[C@H]1O[C@H](N2C(N)NC[C@H]2[C@H](O)[C@H]2NC(=O)[C@H]([C@@H](O)[C@@H]3CNC(N)N3)NC(=O)[C@@H](Cc3ccc(O[C@H]4O[C@H](CO)[C@@H](O[C@H]5O[C@H](CO)[C@@H](O)[C@H](O)[C@@H]5O)[C@H](O)[C@@H]4O)cc3)NC(=O)[C@H]([C@@H](C)c3ccccc3)NC(=O)CNC(=O)[C@H](CO)NC2=O)[C@@H](O)[C@@H](O)[C@@H]1O (stereo not given in full)
> 64 | > 64 | No activity | C[C@@H](c1ccccc1)[C@@H]1NC(=O)CNC(=O)[C@H](CO)NC(=O)[C@@H]([C@@H](O)[C@@H]2CNC(N)N2[C@H]2O[C@H](COC(=O)CCC3CCCC3)[C@@H](O)[C@H](O)[C@@H]2O)NC(=O)[C@H]([C@@H](O)[C@@H]2CNC(N)N2)NC(=O)[C@@H](Cc2ccc(O[C@H]3O[C@H](CO)[C@@H](O[C@H]4O[C@H](CO)[C@@H](O)[C@H](O)[C@@H]4O)[C@H](O)[C@@H]3O)cc2)NC1=O (stereo not given in full)
> 64 | > 64 | No activity | CCCCCCC(=O)OC[C@H]1O[C@H](N2C(N)NC[C@H]2[C@H](O)[C@H]2NC(=O)[C@H]([C@@H](O)[C@@H]3CNC(N)N3)NC(=O)[C@@H](Cc3ccc(O[C@H]4O[C@H](CO)[C@@H](O[C@H]5O[C@H](CO)[C@@H](O)[C@H](O)[C@@H]5O)[C@H](O)[C@@H]4O)cc3)NC(=O)[C@H]([C@@H](C)c3ccccc3)NC(=O)CNC(=O)[C@H](CO)NC2=O)[C@@H](O)[C@@H](O)[C@@H]1O (stereo not given in full)
– | – | No activity | CCCCCCC(=O)OC[C@@H]1NC(=O)[C@@H]([C@@H](O)[C@@H]2CNC(N)N2[C@H]2O[C@H](CO)[C@@H](O)[C@H](O)[C@@H]2O)NC(=O)[C@H]([C@@H](O)[C@@H]2CNC(N)N2)NC(=O)[C@@H](Cc2ccc(O[C@H]3O[C@H](CO)[C@@H](O[C@H]4O[C@H](CO)[C@@H](O)[C@H](O)[C@@H]4O)[C@H](O)[C@@H]3O)cc2)NC(=O)[C@H]([C@@H](C)c2ccccc2)NC(=O)CNC1=O (stereo not given in full)
8 (≈ 5.62 µM) | 2 (≈ 1.4 µM) | No activity | C[C@@H](c1ccccc1)[C@@H]1NC(=O)CNC(=O)[C@H](CO)NC(=O)[C@@H]([C@@H](O)[C@@H]2CNC(N)N2[C@H]2O[C@H](CO)[C@@H](O)[C@H](O)[C@@H]2O)NC(=O)[C@H]([C@@H](O)[C@@H]2CNC(N)N2)NC(=O)[C@@H](Cc2ccc(O[C@H]3O[C@H](COC(=O)CCC4CCCC4)[C@@H](O[C@H]4O[C@H](CO)[C@@H](O)[C@H](O)[C@@H]4O)[C@H](O)[C@@H]3O)cc2)NC1=O (stereo not given in full)
– | – | No activity | C[C@@H](c1ccccc1)[C@@H]1NC(=O)CNC(=O)[C@H](CO)NC(=O)[C@@H]([C@@H](O)[C@@H]2CNC(N)N2[C@H]2O[C@H](COC(=O)Cc3ccccc3)[C@@H](O)[C@H](O)[C@@H]2O)NC(=O)[C@H]([C@@H](O)[C@@H]2CNC(N)N2)NC(=O)[C@@H](Cc2ccc(O[C@H]3O[C@H](CO)[C@@H](O[C@H]4O[C@H](CO)[C@@H](O)[C@H](O)[C@@H]4O)[C@H](O)[C@@H]3O)cc2)NC1=O (stereo not given in full)
4 (≈ 2.81 µM) | 1 (≈ 0.702 µM) | No activity | C[C@@H](c1ccccc1)[C@@H]1NC(=O)CNC(=O)[C@H](CO)NC(=O)[C@@H]([C@@H](O)[C@@H]2CNC(N)N2[C@H]2O[C@H](CO)[C@@H](O)[C@H](O)[C@@H]2O)NC(=O)[C@H]([C@@H](O)[C@@H]2CNC(N)N2)NC(=O)[C@@H](Cc2ccc(O[C@H]3O[C@H](CO)[C@@H](O[C@H]4O[C@H](COC(=O)CCC5CCCC5)[C@@H](O)[C@H](O)[C@@H]4O)[C@H](O)[C@@H]3O)cc2)NC1=O (stereo not given in full)
> 64 | > 64 | No activity | CCCCCC(=O)OC[C@H]1O[C@H](N2C(N)NC[C@H]2[C@H](O)[C@H]2NC(=O)[C@H]([C@@H](O)[C@@H]3CNC(N)N3)NC(=O)[C@@H](Cc3ccc(O[C@H]4O[C@H](CO)[C@@H](O[C@H]5O[C@H](CO)[C@@H](O)[C@H](O)[C@@H]5O)[C@H](O)[C@@H]4O)cc3)NC(=O)[C@H]([C@@H](C)c3ccccc3)NC(=O)CNC(=O)[C@H](CO)NC2=O)[C@@H](O)[C@@H](O)[C@@H]1O (stereo not given in full)
> 64 | > 64 | No activity | C[C@@H](c1ccccc1)[C@@H]1NC(=O)CNC(=O)[C@H](CO)NC(=O)[C@@H]([C@@H](O)[C@@H]2CNC(N)N2[C@H]2O[C@H](CO)[C@@H](O)[C@H](O)[C@@H]2O)NC(=O)[C@H]([C@@H](O)[C@@H]2CNC(N)N2)NC(=O)[C@@H](Cc2ccc(O[C@H]3O[C@H](CO)[C@@H](O[C@H]4O[C@H](CO)[C@@H](O)[C@H](O)[C@@H]4O)[C@H](O)[C@@H]3O)cc2)NC1=O (stereo not given in full)
> 64 | > 64 | No activity | C[C@@H](c1ccccc1)[C@@H]1NC(=O)CNC(=O)[C@H](CO)NC(=O)[C@@H]([C@@H](O)[C@@H]2CNC(N)N2[C@H]2O[C@H](COC(=O)C(c3ccccc3)c3ccccc3)[C@@H](O)[C@H](O)[C@@H]2O)NC(=O)[C@H]([C@@H](O)[C@@H]2CNC(N)N2)NC(=O)[C@@H](Cc2ccc(O[C@H]3O[C@H](CO)[C@@H](O[C@H]4O[C@H](CO)[C@@H](O)[C@H](O)[C@@H]4O)[C@H](O)[C@@H]3O)cc2)NC1=O (stereo not given in full)
– | – | No activity | CCCC(CCC)C(=O)OC[C@@H]1NC(=O)[C@@H]([C@@H](O)[C@@H]2CNC(N)N2[C@H]2O[C@H](CO)[C@@H](O)[C@H](O)[C@@H]2O)NC(=O)[C@H]([C@@H](O)[C@@H]2CNC(N)N2)NC(=O)[C@@H](Cc2ccc(O[C@H]3O[C@H](CO)[C@@H](O[C@H]4O[C@H](CO)[C@@H](O)[C@H](O)[C@@H]4O)[C@H](O)[C@@H]3O)cc2)NC(=O)[C@H]([C@@H](C)c2ccccc2)NC(=O)CNC1=O (stereo not given in full)
– | – | No activity | C[C@@H](c1ccccc1)[C@@H]1NC(=O)CNC(=O)[C@H](COC(=O)Cc2ccccc2)NC(=O)[C@@H]([C@@H](O)[C@@H]2CNC(N)N2[C@H]2O[C@H](CO)[C@@H](O)[C@H](O)[C@@H]2O)NC(=O)[C@H]([C@@H](O)[C@@H]2CNC(N)N2)NC(=O)[C@@H](Cc2ccc(O[C@H]3O[C@H](CO)[C@@H](O[C@H]4O[C@H](CO)[C@@H](O)[C@H](O)[C@@H]4O)[C@H](O)[C@@H]3O)cc2)NC1=O (stereo not given in full)
– | – | No activity | CCCCCC(=O)OC[C@@H]1NC(=O)[C@@H]([C@@H](O)[C@@H]2CNC(N)N2[C@H]2O[C@H](CO)[C@@H](O)[C@H](O)[C@@H]2O)NC(=O)[C@H]([C@@H](O)[C@@H]2CNC(N)N2)NC(=O)[C@@H](Cc2ccc(O[C@H]3O[C@H](CO)[C@@H](O[C@H]4O[C@H](CO)[C@@H](O)[C@H](O)[C@@H]4O)[C@H](O)[C@@H]3O)cc2)NC(=O)[C@H]([C@@H](C)c2ccccc2)NC(=O)CNC1=O (stereo not given in full)
